Each structure is given as a SMILES string. Where two headings read alike, the source gives them in different places. Where only a bound is given, the exact number is not on record here.

Here are results for 25 molecules from patent US10344025B2, “GLS1 inhibitors for treating disease” (Board of Regents, The University of Texas System, priority 2014, dated 2019).

Assay [1] deals with purified recombinant human GAC (GLS1) (Homo sapiens (Human), UniProt O94925). Put plainly: GLS1 Enzymatic Activity Assay (dual-coupled enzymatic assay, resorufin/Amplex UltraRed readout).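 Note: glutamate from GAC coupled via glutamate oxidase and peroxidase to resorufin, read as fluorescence (ex 530, em 590 nm) kinetically or at 20 min, four-parameter logistic IC50 fit.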 In kind it is biochemical.
Chain of purified recombinant human GAC (GLS1) (O94925 other isoform, or with tags, fused parts or gaps): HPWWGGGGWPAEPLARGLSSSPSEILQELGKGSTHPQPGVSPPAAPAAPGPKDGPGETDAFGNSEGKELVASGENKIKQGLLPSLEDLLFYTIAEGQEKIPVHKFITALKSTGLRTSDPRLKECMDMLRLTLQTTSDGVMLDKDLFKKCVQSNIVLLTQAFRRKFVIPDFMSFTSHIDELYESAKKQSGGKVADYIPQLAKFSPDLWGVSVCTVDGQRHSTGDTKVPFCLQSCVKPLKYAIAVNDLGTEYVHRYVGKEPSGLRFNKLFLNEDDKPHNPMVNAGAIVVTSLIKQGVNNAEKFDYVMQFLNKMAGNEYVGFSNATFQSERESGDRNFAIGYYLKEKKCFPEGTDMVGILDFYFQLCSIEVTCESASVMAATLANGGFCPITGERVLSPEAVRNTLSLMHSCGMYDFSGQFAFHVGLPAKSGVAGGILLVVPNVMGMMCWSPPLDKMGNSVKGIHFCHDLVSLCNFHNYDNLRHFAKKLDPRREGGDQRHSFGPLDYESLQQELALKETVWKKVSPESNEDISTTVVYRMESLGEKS
The next assay relates to A549 cells. The experiment in a line: Proliferation Assay (A549 viability, Cell Titer Fluor, 72 hours). It counts as cell-based. In short, it runs like this:
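Cell Titer Fluor fluorescence after 72 h compound treatment (0.5% DMSO, 37 °C, 5% CO2) of A549 cells plated 24 h earlier at 1000/well. Four-parameter logistic fitting gave IC50.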

As for `CNC(=O)c1cn(CCCCc2ccc(NC(=O)[C@@H](C)c3ccccc3)nn2)nn1` [Example 179, N-methyl-1-(4-{6-[(2S)-2-phenylpropanamido]pyridazin-3-yl}butyl)-1H-1,2,3-triazole-4-carboxamide], the IC50 (as a rule, the concentration needed to halve the response being measured) in assay [1] was < 100 nM. Moreover, in the assay on A549 cells (Homo sapiens, A549, 72 h), the EC50 (as a rule, the concentration that produces a half-maximal response) lay within 500 to 5000 nM.
In the case of `CNC(=O)c1cn(CCCCc2ccc(NC(=O)Cc3cccc(Cl)c3F)nn2)nn1` [Example 180, 1-(4-{6-[2-(3-chloro-2-fluorophenyl)acetamido]pyridazin-3-yl}butyl)-N-methyl-1H-1,2,3-triazole-4-carboxamide], the 50% inhibitory concentration (IC50) in assay [1] was < 100 nM. The EC50 in the assay on A549 cells (Homo sapiens, A549, 72 h) was 100 to 500 nM.
Consider `CNC(=O)c1cn(CCC(F)Cn2cc(C(=O)NCc3ccc(OC(F)F)cc3)nn2)nn1` (centres unmarked) [Example 181, 1{4-[4-({[4-(difluoromethoxy)phenyl]methyl}carbamoyl)-1H-1,2,3-triazol-1-yl]-3-fluorobutyl}-N-methyl-1H-1,2,3-triazole-4-carboxamide], for which the IC50 in assay [1] was in the range of 100 to 500 nM. Further, the EC50 in the assay on A549 cells (Homo sapiens, A549, 72 h) lay in the range of 500 to 5000 nM.
For `CNC(=O)c1cn(CCC(F)Cn2cc(C(=O)NCc3cccc(C#N)c3)nn2)nn1` (centres unmarked) [Example 182, 1-[4-(4-{[(3-cyanophenyl)methyl]carbamoyl}-1H-1,2,3-triazol-1-yl)-3-fluorobutyl]-N-methyl-1H-1,2,3-triazole-4-carboxamide], in assay [1], the IC50 was 100 to 500 nM. Moreover, the EC50 with A549 cells (Homo sapiens, A549, 72 h) was > 5000 nM.
Regarding `CNC(=O)c1cn(CCC(F)Cn2cc(C(=O)NCc3cccc(S(C)(=O)=O)c3)nn2)nn1` (centres unmarked) [Example 183, 1-[3-fluoro-4-(4-{[(3-methanesulfonylphenyl)methyl]carbamoyl}-1H-1,2,3-triazol-1-yl)butyl]-N-methyl-1H-1,2,3-triazole-4-carboxamide], the IC50 in assay [1] fell in the range of 100 to 500 nM. In the assay on A549 cells (Homo sapiens, A549, 72 h), the EC50 was > 5000 nM.
On the same counts, the results for `CNC(=O)c1cn(CCC(F)Cn2cc(C(=O)NCc3ccc(C(F)(F)F)cn3)nn2)nn1` (centres unmarked) [Example 184, 1-{3-fluoro-4-[4-({[5-(trifluoromethyl)pyridin-2-yl]methyl}carbamoyl)-1H-1,2,3-triazol-1-yl]butyl}-N-methyl-1H-1,2,3-triazole-4-carboxamide] are 500 to 5000 nM and > 5000 nM.
For the molecule `CNC(=O)c1cn(CCC(F)Cn2cc(C(=O)NCc3cccc(C(=O)OC)c3)nn2)nn1` (centres unmarked) [Example 185, methyl 3-{[(1-{2-fluoro-4-[4-(methylcarbamoyl)-1H-1,2,3-triazol-1-yl]butyl}-1H-1,2,3-triazol-4-yl)formamido]methyl} benzoate], the IC50 in assay [1] was in the range of 100 to 500 nM. In the assay with A549 cells (Homo sapiens, A549, 72 h), this molecule had an EC50 of 500 to 5000 nM.
On to `CNC(=O)c1cn(CCC(F)Cn2cc(C(=O)NCc3ccc(C(F)(F)F)nc3)nn2)nn1` (centres unmarked) [Example 186, 1-{3-fluoro-4-[4-({[6-(trifluoromethyl)pyridin-3-yl]methyl}carbamoyl)-1H-1,2,3-triazol-1-yl]butyl}-N-methyl-1H-1,2,3-triazole-4-carboxamide], for which the IC50 in assay [1] was in the range of 100 to 500 nM. In the assay with A549 cells (Homo sapiens, A549, 72 h), this molecule returned a half-maximal effective concentration (EC50) of 500 to 5000 nM.
Turning to `CNC(=O)c1cn(CCC(F)Cn2cc(C(=O)NCc3ccc(C)nc3)nn2)nn1` (centres unmarked) [Example 187, 1-[3-fluoro-4-(4-{[(6-methylpyridin-3-yl)methyl]carbamoyl}-1H-1,2,3-triazol-1-yl)butyl]-N-methyl-1H-1,2,3-triazole-4-carboxamide], the concentration for half-maximal inhibition (IC50) in assay [1] is 100 to 500 nM. The EC50 in the assay on A549 cells (Homo sapiens, A549, 72 h) is > 5000 nM.
With `CNC(=O)c1cn(CCCCc2ccc(NC(=O)Cc3cncc(-c4cccc(OC(F)(F)F)c4)c3)nn2)nn1` [Example 188, N-methyl-1-(4-(6-(2-(5-(3-(trifluoromethoxy)phenyl)pyridin-3-yl)acetamido)pyridazin-3-yl)butyl)-1H-1,2,3-triazole-4-carboxamide], the IC50 in assay [1] is < 100 nM. In the assay on A549 cells (Homo sapiens, A549, 72 h), the concentration for a half-maximal effect (EC50) is < 100 nM.
Consider `CNC(=O)c1cn(CC(F)CCc2nnc(C(=O)NCc3ccc(C(F)(F)F)cn3)s2)nn1` (centres unmarked) [Example 189, 5-{3-fluoro-4-[4-(methylcarbamoyl)-1H-1,2,3-triazol-1-yl]butyl}-N-{[5-(trifluoromethyl)pyridin-2-yl]methyl}-1,3,4-thiadiazole-2-carboxamide], for which the IC50 in assay [1] was 500 to 5000 nM. In the assay with A549 cells (Homo sapiens, A549, 72 h), the EC50 was > 5000 nM.
Regarding `CNC(=O)c1cn(C[C@@H](F)CCc2nnc(NC(=O)Cc3cccc(OC(F)(F)F)c3)s2)nn1` [Example 193, (S)-1-(2-fluoro-4-(5-(2-(3-(trifluoromethoxy)phenyl)acetamido)-1,3,4-thiadiazol-2-yl)butyl)-N-methyl-1H-1,2,3-triazole-4-carboxamide], the IC50 in assay [1] was < 100 nM. This molecule also registered an EC50 with A549 cells of 500 to 5000 nM.
In the case of `CNC(=O)c1cn(C[C@@H](F)CCc2nnc(NC(=O)Cc3cccc(OC(F)(F)F)c3)s2)nn1` [Example 194, (S)-1-(2-fluoro-4-(5-(2-(3-(trifluoromethoxy)phenyl)acetamido)-1,3,4-thiadiazol-2-yl)butyl)-N-methyl-1H-1,2,3-triazole-4-carboxamide], in assay [1], the IC50 was < 100 nM. In addition, the EC50 in the assay with A549 cells was < 100 nM.
As to `CNC(=O)c1cn(CC(F)CCc2nnc(NC(=O)Cc3cncc(-c4cccc(OC(F)(F)F)c4)c3)s2)nn1` (centres unmarked) [Example 195, 1-(2-fluoro-4-(5-(2-(5-(3-(trifluoromethoxy)phenyl)pyridin-3-yl)acetamido)-1,3,4-thiadiazol-2-yl)butyl)-N-methyl-1H-1,2,3-triazole-4-carboxamide], in assay [1], the IC50 was < 100 nM. Further, the EC50 in the assay on A549 cells (Homo sapiens, A549, 72 h) is < 100 nM.
Consider `O=C(Cc1ccccn1)Nc1nnc(CC[C@H](F)Cn2cc(C(=O)NCc3cc(OC(F)(F)F)ccc3F)nn2)s1` [Example 197, (S)-1-(2-fluoro-4-(5-(2-(pyridin-2-yl)acetamido)-1,3,4-thiadiazol-2-yl)butyl)-N-(2-fluoro-5-(trifluoromethoxy)benzyl)-1H-1,2,3-triazole-4-carboxamide], for which, in assay [1], the IC50 is < 100 nM. In the assay on A549 cells (Homo sapiens, A549, 72 h), the EC50 was < 100 nM.
Take `O=C(Cc1ccccn1)Nc1nnc(CC[C@@H](F)Cn2cc(C(=O)NCc3cc(OC(F)(F)F)ccc3F)nn2)s1` [Example 198, (R)-1-(2-fluoro-4-(5-(2-(pyridin-2-yl)acetamido)-1,3,4-thiadiazol-2-yl)butyl)-N-(2-fluoro-5-(trifluoromethoxy)benzyl)-1H-1,2,3-triazole-4-carboxamide]: the IC50 in assay [1] is < 100 nM. Also, the EC50 with A549 cells (Homo sapiens, A549, 72 h) was < 100 nM.
In the case of `CNC(=O)c1cn(CCCCc2ccc(NC(=O)Cc3cccc(C4=CCOCC4)c3)nn2)nn1` [Example 199, 1-(4-(6-(2-(3-(3,6-dihydro-2H-pyran-4-yl)phenyl)acetamido)pyridazin-3-yl)butyl)-N-methyl-1H-1,2,3-triazole-4-carboxamide], the IC50 in assay [1] was < 100 nM. In addition, in the assay on A549 cells (Homo sapiens, A549, 72 h), the EC50 is 100 to 500 nM.
Consider `O=C(Cc1ccccn1)Nc1nnc(CC[C@@H](F)Cn2cc(C(=O)NCc3ccc(C(F)(F)F)cn3)nn2)s1` [Example 201, (R)-1-(2-fluoro-4-(5-(2-(pyridin-2-yl)acetamido)-1,3,4-thiadiazol-2-yl)butyl)-N-((5-(trifluoromethyl)pyridin-2-yl)methyl)-1H-1,2,3-triazole-4-carboxamide], for which the IC50 in assay [1] is < 100 nM. The same molecule registered an EC50 in the assay on A549 cells (Homo sapiens, A549, 72 h) of 100 to 500 nM.
`O=C(Cc1cc(OC(F)(F)F)ccc1F)Nc1nnc(CCC(F)Cn2cc(C(=O)NCc3ccccn3)nn2)s1` (centres unmarked) [Example 204, 1-(2-fluoro-4-(5-(2-(2-fluoro-5-(trifluoromethoxy)phenyl)acetamido)-1,3,4-thiadiazol-2-yl)butyl)-N-(pyridin-2-ylmethyl)-1H-1,2,3-triazole-4-carboxamide]: the IC50 in assay [1] was < 100 nM. The EC50 with A549 cells (Homo sapiens, A549, 72 h) was < 100 nM.
Regarding `COc1ccnc(CNC(=O)c2cn(CC(F)CCc3nnc(NC(=O)Cc4cc(OC(F)(F)F)ccc4F)s3)nn2)c1` (centres unmarked) [Example 205, 1-(2-fluoro-4-(5-(2-(2-fluoro-5-(trifluoromethoxy)phenyl)acetamido)-1,3,4-thiadiazol-2-yl)butyl)-N-((4-methoxypyridin-2-yl)methyl)-1H-1,2,3-triazole-4-carboxamide], the concentration for half-maximal inhibition (IC50) in assay [1] is < 100 nM. Further, the EC50 with A549 cells (Homo sapiens, A549, 72 h) was < 100 nM.
On to `COc1cccc(CNC(=O)c2cn(CC(F)CCc3nnc(NC(=O)Cc4cc(OC(F)(F)F)ccc4F)s3)nn2)n1` (centres unmarked) [Example 206, 1-(2-fluoro-4-(5-(2-(2-fluoro-5-(trifluoromethoxy)phenyl)acetamido)-1,3,4-thiadiazol-2-yl)butyl)-N-((6-methoxypyridin-2-yl)methyl)-1H-1,2,3-triazole-4-carboxamide], for which the IC50 in assay [1] was < 100 nM. Besides, the EC50 in the assay with A549 cells (Homo sapiens, A549, 72 h) is < 100 nM.
As to `CNC(=O)c1cn(CCCCc2ccc(NC(=O)Cc3cc(-c4ccccc4OC(F)(F)F)ccn3)nn2)nn1` [Example 207, N-methyl-1-(4-(6-(2-(4-(2-(trifluoromethoxy)phenyl)pyridin-2-yl)acetamido)pyridazin-3-yl)butyl)-1H-1,2,3-triazole-4-carboxamide], the IC50 in assay [1] was < 100 nM. In addition, the EC50 with A549 cells (Homo sapiens, A549, 72 h) was < 100 nM.
Turning to `CNC(=O)c1cn(CCCCc2ccc(NC(=O)Cc3cc(C4CCOCC4)ccn3)nn2)nn1` [Example 208, N-methyl-1-(4-(6-(2-(4-(tetrahydro-2H-pyran-4-yl)pyridin-2-yl)acetamido)pyridazin-3-yl)butyl)-1H-1,2,3-triazole-4-carboxamide], in assay [1], the IC50 was < 100 nM. This molecule gave a concentration giving a half-maximal response (EC50) in the assay with A549 cells (Homo sapiens, A549, 72 h) of 100 to 500 nM.
For the molecule `CNC(=O)c1cn(CC(F)CCc2nnc(C(=O)NCc3cccc(N4CCCCC4)c3)s2)nn1` (centres unmarked) [Example 209, 5-(3-fluoro-4-(4-(methylcarbamoyl)-1H-1,2,3-triazol-1-yl)butyl)-N-(3-(piperidin-1-yl)benzyl)-1,3,4-thiadiazole-2-carboxamide], the IC50 in assay [1] lay in the range of 100 to 500 nM. This molecule also returned an EC50 with A549 cells (Homo sapiens, A549, 72 h) of 100 to 500 nM.
As to `O=C(Cc1ccccn1)Nc1ccc(CCC(F)Cn2cc(C(=O)NCc3cc(C(F)(F)F)ccn3)nn2)nn1` (centres unmarked) [Example 211, 1-(2-fluoro-4-(6-(2-(pyridin-2-yl)acetamido)pyridazin-3-yl)butyl)-N-((4-(trifluoromethyl)pyridin-2-yl)methyl)-1H-1,2,3-triazole-4-carboxamide], the IC50 in assay [1] is < 100 nM. Besides, the EC50 with A549 cells (Homo sapiens, A549, 72 h) was < 100 nM.
